Test results taken from PubChem BioAssay (NCI).
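In this assay, cells in 96-well plates receive the compound at five concentrations for 48 hours. Endpoints are linearly interpolated between the surrounding concentrations. TGI marks complete inhibition of growth.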

Columns and labels:
Assay in all cases: inhibition of tumour cell growth, NCI panel, 48 h
[1] = test system: MCF7 breast
[2] = test system: SF-539 CNS
[3] = test system: SN12C renal
[4] = test system: OVCAR-8 ovarian
[5] = test system: OVCAR-5 ovarian
[6] = test system: M14 melanoma
[7] = test system: SF-295 CNS
[8] = test system: TK-10 renal
[9] = test system: COLO 205 colon
[10] = test system: HT29 colon
[11] = test system: NCI-H522 lung
[12] = test system: UACC-62 melanoma
[13] = test system: HS 578T breast
[14] = test system: NCI-H226 lung
[15] = test system: 786-0 renal
[16] = test system: SNB-19 CNS
[17] = test system: SK-MEL-2 melanoma
[18] = test system: UO-31 renal
[19] = test system: NCI-H23 lung
[20] = test system: RXF 393 renal
[21] = test system: HL-60(TB) leukemia
[22] = test system: HOP-62 NSCLC
[23] = test system: CCRF-CEM leukemia
[24] = test system: MDA-MB-435
[25] = test system: SK-MEL-28 melanoma
[26] = test system: SW-620 colon
[27] = test system: SK-MEL-5 melanoma
[28] = test system: HCT-116 colon
[29] = test system: T-47D breast
[30] = test system: CAKI-1 renal
[31] = test system: HCT-15 colon
[32] = test system: KM12 colon
[33] = test system: U251 CNS
[34] = test system: HOP-92 NSCLC
[35] = test system: SNB-75 CNS
[36] = test system: EKVX NSCLC
[37] = test system: MOLT-4 leukemia
[38] = test system: SF-268 CNS
[39] = test system: NCI/ADR-RES ovarian
[40] = test system: MDA-MB-231 breast
[41] = test system: DU-145 prostate
[42] = test system: SK-OV-3 ovarian
[43] = test system: K-562 leukemia
[44] = test system: RPMI-8226 leukemia
[45] = test system: UACC-257 melanoma
[46] = test system: HCC-2998 colon
[47] = test system: LOX IMVI melanoma
[48] = test system: ACHN renal
[49] = test system: BT-549 breast
[50] = test system: SR leukemia
[51] = test system: A498 renal
[52] = test system: PC-3 prostate
[53] = test system: OVCAR-3 ovarian
[54] = test system: A549 NSCLC
[55] = test system: MALME-3M melanoma
[56] = test system: IGROV1 ovarian
[57] = test system: MDA-N
[58] = test system: OVCAR-4 ovarian
[59] = test system: NCI-H460 lung

CC(=O)N(CCc1ccccc1)C(C)(C#N)c1ccccc1 (stereo not given)
TGI [1]: > 100 µM | TGI [2]: > 100 µM | TGI [3]: > 100 µM | TGI [4]: > 100 µM | TGI [5]: > 100 µM | TGI [6]: > 100 µM | TGI [7]: > 100 µM | TGI [8]: > 100 µM | TGI [9]: > 100 µM | TGI [10]: > 100 µM | TGI [11]: > 100 µM | TGI [12]: > 100 µM | TGI [13]: > 100 µM | TGI [14]: > 100 µM | TGI [15]: > 100 µM | TGI [16]: > 100 µM | TGI [17]: > 100 µM | TGI [18]: > 100 µM | TGI [19]: > 100 µM | TGI [20]: > 100 µM | TGI [21]: > 100 µM | TGI [22]: > 100 µM | TGI [23]: > 100 µM | TGI [24]: > 100 µM | TGI [25]: > 100 µM | TGI [26]: > 100 µM | TGI [27]: > 100 µM | TGI [28]: > 100 µM | TGI [29]: > 100 µM | TGI [30]: > 100 µM | TGI [31]: > 100 µM | TGI [32]: > 100 µM | TGI [33]: > 100 µM | TGI [34]: > 100 µM | TGI [35]: > 100 µM | TGI [36]: > 100 µM | TGI [37]: > 100 µM | TGI [38]: > 100 µM | TGI [39]: > 100 µM | TGI [40]: > 100 µM | TGI [41]: > 100 µM | TGI [42]: > 100 µM | TGI [43]: > 100 µM | TGI [44]: > 100 µM | TGI [45]: > 100 µM | TGI [46]: > 100 µM | TGI [47]: > 100 µM | TGI [48]: > 100 µM | TGI [49]: > 100 µM | TGI [50]: > 100 µM | TGI [51]: > 100 µM | TGI [52]: > 100 µM | TGI [53]: > 100 µM | TGI [54]: > 100 µM | TGI [55]: > 100 µM | TGI [56]: > 100 µM | TGI [57]: > 100 µM | TGI [58]: > 100 µM

CC1(c2nc3ccccc3[nH]2)CCC(CO)C(C)(C)O1 (stereo not given)
TGI [1]: > 100 µM | TGI [2]: > 100 µM | TGI [3]: > 100 µM | TGI [4]: > 100 µM | TGI [5]: > 100 µM | TGI [6]: > 100 µM | TGI [7]: > 100 µM | TGI [8]: > 100 µM | TGI [9]: > 100 µM | TGI [10]: > 100 µM | TGI [11]: > 100 µM | TGI [12]: > 100 µM | TGI [13]: > 100 µM | TGI [14]: > 100 µM | TGI [15]: > 100 µM | TGI [16]: > 100 µM | TGI [17]: > 100 µM | TGI [18]: > 100 µM | TGI [19]: > 100 µM | TGI [20]: > 100 µM | TGI [21]: > 100 µM | TGI [22]: > 100 µM | TGI [23]: > 100 µM | TGI [24]: > 100 µM | TGI [25]: > 100 µM | TGI [26]: > 100 µM | TGI [27]: > 100 µM | TGI [28]: > 100 µM | TGI [29]: > 100 µM | TGI [30]: > 100 µM | TGI [31]: > 100 µM | TGI [32]: > 100 µM | TGI [33]: > 100 µM | TGI [34]: > 100 µM | TGI [35]: > 100 µM | TGI [36]: > 100 µM | TGI [37]: > 100 µM | TGI [38]: > 100 µM | TGI [39]: > 100 µM | TGI [40]: > 100 µM | TGI [41]: > 100 µM | TGI [42]: > 100 µM | TGI [43]: > 100 µM | TGI [44]: > 100 µM | TGI [45]: > 100 µM | TGI [46]: > 100 µM | TGI [47]: > 100 µM | TGI [48]: > 100 µM | TGI [49]: > 100 µM | TGI [50]: 33.7 µM | TGI [52]: > 100 µM | TGI [53]: > 100 µM | TGI [54]: > 100 µM | TGI [55]: > 100 µM | TGI [56]: > 100 µM | TGI [57]: > 100 µM | TGI [58]: > 100 µM

COc1ccc(C(c2ccccc2)N2C(=O)CCC2C(=O)O)cc1OC (stereo not given)
TGI [1]: > 100 µM | TGI [2]: > 100 µM | TGI [3]: > 100 µM | TGI [4]: > 100 µM | TGI [5]: > 100 µM | TGI [6]: > 100 µM | TGI [7]: > 100 µM | TGI [8]: > 100 µM | TGI [9]: > 100 µM | TGI [10]: > 100 µM | TGI [11]: > 100 µM | TGI [12]: > 100 µM | TGI [13]: > 100 µM | TGI [14]: > 100 µM | TGI [15]: > 100 µM | TGI [16]: > 100 µM | TGI [17]: > 100 µM | TGI [18]: > 100 µM | TGI [19]: > 100 µM | TGI [21]: > 100 µM | TGI [22]: > 100 µM | TGI [23]: > 100 µM | TGI [24]: > 100 µM | TGI [25]: > 100 µM | TGI [26]: > 100 µM | TGI [27]: > 100 µM | TGI [28]: > 100 µM | TGI [29]: > 100 µM | TGI [30]: > 100 µM | TGI [31]: > 100 µM | TGI [32]: > 100 µM | TGI [33]: > 100 µM | TGI [34]: > 100 µM | TGI [35]: > 100 µM | TGI [36]: > 100 µM | TGI [37]: > 100 µM | TGI [38]: > 100 µM | TGI [39]: > 100 µM | TGI [40]: > 100 µM | TGI [41]: > 100 µM | TGI [42]: > 100 µM | TGI [43]: > 100 µM | TGI [44]: > 100 µM | TGI [45]: > 100 µM | TGI [46]: > 100 µM | TGI [47]: > 100 µM | TGI [48]: > 100 µM | TGI [49]: > 100 µM | TGI [50]: > 100 µM | TGI [51]: > 100 µM | TGI [52]: > 100 µM | TGI [53]: > 100 µM | TGI [54]: > 100 µM | TGI [55]: > 100 µM | TGI [56]: > 100 µM | TGI [57]: > 100 µM | TGI [58]: > 100 µM | TGI [59]: > 100 µM

N/C(=N/O)c1cn(C2OC(CO)C(O)C2O)c2ncnc(NO)c12 (stereo not given)
TGI [1]: 23.2 µM | TGI [2]: 5.03 µM | TGI [3]: > 100 µM | TGI [4]: > 100 µM | TGI [5]: > 57.7 µM | TGI [6]: 2.88 µM | TGI [7]: 54.7 µM | TGI [8]: > 33.6 µM | TGI [9]: 0.623 µM | TGI [10]: > 100 µM | TGI [11]: 0.392 µM | TGI [12]: 1.66 µM | TGI [13]: > 100 µM | TGI [14]: 17.4 µM | TGI [15]: > 100 µM | TGI [16]: > 100 µM | TGI [17]: 0.176 µM | TGI [19]: 2.29 µM | TGI [20]: 14.7 µM | TGI [21]: 0.76 µM | TGI [22]: > 100 µM | TGI [24]: 0.805 µM | TGI [25]: > 51.3 µM | TGI [26]: > 46.1 µM | TGI [27]: 0.892 µM | TGI [28]: > 77.4 µM | TGI [29]: > 35.3 µM | TGI [31]: > 100 µM | TGI [33]: 54.1 µM | TGI [34]: > 45.4 µM | TGI [36]: > 100 µM | TGI [37]: 0.395 µM | TGI [38]: > 100 µM | TGI [39]: 7.19 µM | TGI [40]: 5.05 µM | TGI [41]: > 40 µM | TGI [43]: > 100 µM | TGI [44]: 1.86 µM | TGI [45]: 4.4 µM | TGI [46]: 7.12 µM | TGI [47]: 4.53 µM | TGI [48]: 4.72 µM | TGI [49]: > 100 µM | TGI [50]: 0.262 µM | TGI [51]: 3.01 µM | TGI [52]: 3.17 µM | TGI [54]: > 100 µM | TGI [55]: 0.408 µM | TGI [56]: > 51 µM | TGI [57]: > 100 µM | TGI [58]: 5.98 µM | TGI [59]: 7.59 µM
